Earlier results as cited in patent publication US20030032669A1, “Pesticidal compositions and their use as protecting agents” (priority 2000, published 2003).

Assays:
[1] = system: plants
[2] = aqueous solutions at 50° C.
[3] = system: larvae of German cockroach Blatella germanica; conditions: exposure to 100 ng/cm^2; after 3 weeks
[4] = alcohols, ketones and toluene
[5] = system: adult grain weevils Sitophilus granarius; conditions: wheat treated with 1 μg/g; after 50 days

## O=C(NC(=O)c1c(F)cccc1F)Nc1ccc(Oc2ccc(C(F)(F)F)cc2Cl)cc1F [flufenoxuron, 1-[4-(2-chloro-trifluoro-p-tolyloxy)-2-fluorophenyl]-3-(2,6-difluorobenzoyl)urea]
other
  degradation in soil: rapidly degraded
[1]
  phyto-toxicity: no recorded phyto-toxicity

## CCOC(=O)NCCOc1ccc(Oc2ccccc2)cc1 [fenoxycarb, ethyl 2-(4-phenoxyphenoxy)ethylcarbamate]
[2]
  stability to hydrolysis: stable to hydrolysis
other
  degradation in soil: rapidly degraded
[3]
  reduction of population of larvae of German cockroach: 90%
[4]
  solubility in organic solvents: very soluble
[5]
  reduction of population of adult grain weevils: 100%
